Where two headings read alike, the source gives them in different places.

For assay [1], the system named is MRSA. Briefly: High-throughput screening of 4989 compounds with human lysozyme. Format: cell-based, Staphylococcus aureus. Particulars: for MRSA Inhibition ratio (%): compound 2.5 μM + 1 mg/ml lysozyme relative to compound only. How it is done:
1) High-throughput screening. […] Specifically, these compounds were added into bacterial suspensions (1×10^6 CFU/ml) in the […] microliter plate, in which each well contained 50 μl of lysogeny broth (LB) medium with or without 1 mg/ml lysozyme. LB medium in the absence of bacteria served as background group. Then, the real-time growth curves of MRSA were monitored per hour and for 24 hours. Experiments were performed with the biological replicates. Fly analyzing the absorbance 600 nm (OD600) of bacterial culture at the time point of 24-hour, the inhibition ratio (%) was calculated according to (ODcontrol−ODsample)/(ODcontrol−ODbackground)×100%. Here, the relative and apparent inhibition ratios were figured out by using the absorbance of bacterial suspension only containing compound and that without any drug treatment as ODcontrol, respectively. The relative and apparent inhibition ratios indicated the combination effect and potential toxicity of compound in combination effect. Synergy effect was defined as the relative inhibition ratio of ≥90%.

In assay [2] the test system is MRSA. Briefly: Antibiotics accumulation analysis (LC-MS/MS). Format: cell-based, Staphylococcus aureus. How it is done: 11) Antibiotics accumulation analysis. The accumulation of antibiotics in MRSA was determined by LC-MS/MS analysis according to a previous report [Liu, Y et al., Adv. Sci. 7. 1902227 (2020); Ong, V et al., Drug Metab. Dispos, 4127 (2014); Richter, M. F et al., Nature 545, 299-304 (2017)]. Briefly, 1.0 ml of overnight culture of MRSA was diluted into […] of fresh LB medium and cultured at 37° C. with shaking at 250 rpm until when bacteria OD600 was about 0.4. Then, tedizolid phosphate (0.5 μg/ml) in combination with varying lysozyme (0, 0.25, 0.5 and 1.0 mg/ml) was added. After that, all samples were further cultured at 37° C. with shaking at 250 rpm for 0.5, 1.0, 2.0 or 4 hours, respectively. Then, all bacteria were pelleted by centrifuging at 13 000 g for 20 minutes. To lyse the bacteria, each pellet was dissolved in 400 μl of lysis buffer (150 mM NaCl, 1% Triton-X100, 1× proteinase inhibitor and 50 mM HEPES-Na, pH 8.0) and then subjected to sonication lysis, followed by three freeze-thaw cycles in liquid nitrogen. The lysates were pelleted at 13 000 g for 20 minutes and the supernatants were collected. All debris were re-suspended in 400 μl of methanol and pelleted as before, followed by 400 μl of acetonitrile treatment as before. These supernatants were combined with the previously collected supernatants, Residual debris was removed by centrifuging at 13 000 g for 20 minutes. Supernatants were analyzed by an Agilent 1260 Infinity HPLC system coupled to AD SCIEX QTRAP 6500 mass spectrometers (ABSciex, CA, USA). The liquid chromatography separation was performed on water HSS T3 column (2.1×100 mm, 3 μm) with mobile phase A (20 mM ammonium formate in water) and mobile phase B (methanol). The flow rate was […]. […] The quantification determination of antibiotic uptake was performed by multiple reaction monitoring (MRM) with negative electrospray ionization using the m/z 451 transition for tedizolid phosphate [Ong, V et al., Drug Metab. […]

For assay [3], the system named is MRSA. The experiment in a line: Nascent protein synthesis analysis (OPP probe). Format: cell-based. Particulars: Staphylococcus aureus, 1 h, read-out: minimal dosage of tedizolid phosphate for synthesis inhibition of half of the nascent protein. How it is done: 12) Nascent protein synthesis analysis. According to the previously reported method [Forester, C. M et al., Proc. Nat. […] Specifically, mid-log-phase MRSA with OD600 of 0.4 to 0.6 was treated with lysozyme, tedizolid phosphate or their combination at different concentrations at 37° C. for 1 hour. These bacteria served as related negative control groups. Positive control groups had similar protocols but with addition of 20 μM OPP. After 1 hour incubation, all bacteria were collected washed by cold PBS for 3 times and fixed by 3.7% formaldehyde in PBS, followed by re-suspension in lysis buffer containing 0.5% Triton® X-100. Then, these fixed and permeabilized cells were incubated with Click-iT™ plus OPP reaction cocktail according to the standard protocol [Forester, C. M et al., Proc. Nat. Acad. U.S.A. 115, 2353-2358 (2018)]. After 30 minutes incubation in the prevention of light at room temperature, the reaction cocktail was removed. Next, these fixed cells in 96-well plate were washed by using 200 μl/well of Click-iT® reaction rinse buffer, followed by further incubation with 1×HCS nuclear Mask™ blue stain working solution. After 30 minutes incubation in the prevention of light at room temperature, the nuclear Mask™ blue stain working solution was removed. […] Inhibition degrees of nascent proteins synthesis were expressed with fluorescence ratio (Alexa Fluor®/nuclear Mask™) as average±SD. […]

For assay [4], the system named is MRSA. The experiment in a line: Mutation frequency and prevention concentration analysis, tedizolid phosphate/lysozyme.
For assay [5], the system named is MRSA. The experiment in a line: TMT proteomics analysis, tedizolid phosphate/lysozyme. The class given is cell-based, Staphylococcus aureus.
A further assay relates to MRSA in ARPE-19 cells. Briefly: Cell infection model, tedizolid phosphate/lysozyme.
Setting [6] is: combination therapy compared with lysozyme alone, 1 hour.

As to `C=CC1=C(C(=O)O)N2C(=O)[C@@H](NC(=O)/C(=N\O)c3csc(N)n3)[C@H]2SC1` [cefdinir, Cefdinir], the “MRSA Combination” value with MRSA [1] (OD600 at 24-hour, compound 2.5 μM + 1 mg/ml lysozyme) is 0.0564. Besides, the “MRSA Drug only” value in the assay on MRSA [1] (OD600 at 24-hour, compound 2.5 μM without lysozyme) came to 0.6975. In addition, the “MRSA Inhibition ratio (%)” value in the assay with MRSA [1] is “above 90%”; in the assay with MRSA [1] (listed as Ce ? dinir), 99.16%.
In the case of `Cn1nnc(-c2ccc(-c3ccc(N4C[C@H](COP(=O)(O)O)OC4=O)cc3F)cn2)n1` [tedizolid phosphate, Tedizolid Phosphate], the “increase in the level of intracellular tedizolid phosphate” value in the assay with MRSA [2] (after 4 hours, lysozyme (≤0.25 mg/ml) used in combination) worked out at 10 fold. In addition, the “intracellular accumulation of tedizolid phosphate” value with MRSA [2] (combination therapy, 1 hour) is given as “ca. 100 μg/l”. In addition, in the assay with MRSA [2] (tedizolid phosphate alone, 1 hour), the “tedizolid phosphate alone needed to achieve the same intracellular accumulation” value is no less than 4.5 µg/mL. For the same molecule, in the assay on MRSA [3] (combination with 0.5 mg/ml lysozyme), the IC50 amounted to 0.32 µg/mL. For the same molecule, the IC50 in the assay with MRSA [3] (monotherapy) amounted to 9.5 µg/mL. In the assay with MRSA [4] (combination with lysozyme), the mutation frequencies is listed as 2×10^−9 and the “prevention concentrations of tedizolid phosphate” value was no more than 1 µg/mL. For the same molecule, in the assay on MRSA [4] (without combination therapy), the mutation frequencies is reported as ≥ 5×10^−7. Besides, in the assay on MRSA [4] (without lysozyme), the “prevention concentrations of tedizolid phosphate” value was greater than 50 µg/mL. Also, in the assay on MRSA [5] (combination therapy), the “level of FtsA” value is given as 0.003 fold, the “level of OatA (Q2FV54)” value is “significant increase” and the “level of SepF” value is on record as 0.5 fold. For the same molecule, in the assay on MRSA [5] (setting [6]), the “expression of ornithine carbamoyltransferase (Q5HCR3)” value was 0.5 fold, the “level of arginine deiminase (Q5HKU2)” value was 3.9 fold and the “level of urease subunit alpha (A5IV71)” value was 1,5 fold. Besides, in the assay on MRSA [5] (combination therapy, 1 hour), the “phosphoglycerate kinase (Q5HQV3) level” value was 0.005 fold and the “probable malate:quinone oxidoreductase I (P65421) level” value was determined as 0.12 fold. In addition, the “death of infected ARPE-19 cells” value with MRSA in ARPE-19 cells (1.0 μg/ml tedizolid phosphate + 0.5 mg/ml lysozyme, MOI 10) is reported as “cell death was prevented”. Besides, the “bacterial load in ARPE-19 cells” value in the assay on MRSA in ARPE-19 cells (≥1.0 μg/ml tedizolid phosphate in the presence of 0.5 mg/ml lysozyme, reduced from 10^7) is 10^4 CFU/ml.

The values are drawn from patent publication US20250144187A1, “COMBINATION OF HYDROLASES AND ANTI-MICROORGANISM DRUGS AND USES THEREOF” (CENTRE FOR EYE AND VISION RESEARCH LIMITED, priority 2023, published 2025).
